“Also recorded” adds a separate entry of the source.
How the values were obtained:
[1] = molecular target: T1, human STING (hSTING) (Homo sapiens, UniProt Q86WV6); assay: hSTING ISRE-luc reporter assay in 293T cells; assay type: cell-based; details: 24 hours
T1 construct: expressed in transfected cells; host or cells: 293T
Method: ISRE-luc (reporter), pRL-TK (internal control) and hSTING-expressing plasmids were transiently transfected into 293T cells. Cells were exposed to DMSO vehicle control or compounds for 24 hours. Experiments were done in triplicate.

[2] = molecular target: T2, human GATA3 (Homo sapiens, UniProt P23771); assay: GATA3-dependent reporter assay in IHH cells; assay type: cell-based; details: 48 hours
T2 construct: expressed in transfected cells; host or cells: IHH
T2 sequence (P23771 whole entry): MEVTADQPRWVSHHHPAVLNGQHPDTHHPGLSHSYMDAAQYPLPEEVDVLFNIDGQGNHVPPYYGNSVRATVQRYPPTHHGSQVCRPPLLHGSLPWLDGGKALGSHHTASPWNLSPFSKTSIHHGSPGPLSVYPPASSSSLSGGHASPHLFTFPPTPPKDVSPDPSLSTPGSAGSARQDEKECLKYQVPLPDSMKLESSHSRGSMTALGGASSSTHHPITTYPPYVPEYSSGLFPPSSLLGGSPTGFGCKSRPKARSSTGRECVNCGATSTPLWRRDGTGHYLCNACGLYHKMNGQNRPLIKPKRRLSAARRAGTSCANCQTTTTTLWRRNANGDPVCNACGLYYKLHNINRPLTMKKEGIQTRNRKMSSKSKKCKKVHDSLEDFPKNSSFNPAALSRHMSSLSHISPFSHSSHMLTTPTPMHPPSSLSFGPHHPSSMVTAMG
Method: The IHH cells were transiently transfected with empty vector (for the NT) or human GATA3-expressing plasmid as well as pRL-TK (internal control) and GATA-Luc reporter plasmids. Cells were exposed to DMSO vehicle or compounds for 48 hours. Experiments were done in triplicate.

[3] = molecular target: T3, mouse STING (mSTING) (Mus musculus, UniProt Q3TBT3); assay: mSTING ISRE-luc reporter assay in 293T cells; assay type: cell-based; details: 24 hours
T3 construct: expressed in transfected cells; host or cells: 293T
T3 sequence (Q3TBT3 1-378): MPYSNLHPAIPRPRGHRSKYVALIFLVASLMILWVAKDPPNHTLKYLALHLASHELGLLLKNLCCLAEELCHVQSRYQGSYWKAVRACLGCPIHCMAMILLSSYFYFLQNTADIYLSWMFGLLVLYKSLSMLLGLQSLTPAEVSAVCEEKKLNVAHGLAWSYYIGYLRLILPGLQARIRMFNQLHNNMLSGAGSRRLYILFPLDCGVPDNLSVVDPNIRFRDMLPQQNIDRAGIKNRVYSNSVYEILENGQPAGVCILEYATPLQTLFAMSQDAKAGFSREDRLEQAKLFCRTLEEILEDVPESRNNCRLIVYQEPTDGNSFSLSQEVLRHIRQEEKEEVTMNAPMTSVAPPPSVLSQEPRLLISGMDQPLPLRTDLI
Method: ISRE-luc (reporter), pRL-TK (internal control) and mSTING-expressing plasmids were transiently transfected into 293T cells. Cells were exposed to DMSO vehicle control or compounds for 24 hours. Experiments were done in triplicate.

[4] = molecular target: human STING (Homo sapiens, UniProt Q86WV6); assay: SPR analysis on amine-coupled human STING; assay type: binding; details: 0-50 μM, 2-fold dilution series
human STING, sequence (Q86WV6 whole entry H232R): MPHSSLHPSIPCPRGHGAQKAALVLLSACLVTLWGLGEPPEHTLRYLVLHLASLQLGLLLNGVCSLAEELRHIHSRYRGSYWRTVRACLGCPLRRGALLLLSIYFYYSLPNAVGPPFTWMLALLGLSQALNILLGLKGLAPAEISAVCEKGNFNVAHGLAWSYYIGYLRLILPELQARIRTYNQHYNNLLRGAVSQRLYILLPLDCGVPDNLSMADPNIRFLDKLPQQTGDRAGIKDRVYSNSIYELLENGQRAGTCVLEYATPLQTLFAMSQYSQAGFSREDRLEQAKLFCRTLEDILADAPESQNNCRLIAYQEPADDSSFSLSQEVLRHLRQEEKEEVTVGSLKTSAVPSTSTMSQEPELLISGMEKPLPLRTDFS

[5] = molecular target: T4, recombinant protein of human GATA2 (Homo sapiens, UniProt P23769); assay: SPR analysis on amine-coupled GATA2; assay type: binding; details: 50 μM each
T4 sequence (P23769 1-480): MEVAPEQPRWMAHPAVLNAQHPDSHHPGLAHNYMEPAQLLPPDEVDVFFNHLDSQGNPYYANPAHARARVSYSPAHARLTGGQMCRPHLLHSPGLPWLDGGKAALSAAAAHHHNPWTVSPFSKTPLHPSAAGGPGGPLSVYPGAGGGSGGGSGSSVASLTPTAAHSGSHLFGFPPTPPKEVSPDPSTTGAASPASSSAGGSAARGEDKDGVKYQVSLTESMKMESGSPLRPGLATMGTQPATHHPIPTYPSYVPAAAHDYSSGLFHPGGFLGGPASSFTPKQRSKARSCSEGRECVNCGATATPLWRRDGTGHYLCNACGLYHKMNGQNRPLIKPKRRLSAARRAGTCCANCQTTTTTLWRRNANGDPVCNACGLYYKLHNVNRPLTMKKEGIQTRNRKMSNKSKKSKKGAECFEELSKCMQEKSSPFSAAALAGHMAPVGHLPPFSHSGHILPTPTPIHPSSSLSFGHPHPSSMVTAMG
Description: In embodiments of the invention, the androgen-bound AR is regressing GATA2 expression and inhibition of AR via castration or use of antiandrogen releases such expression. […] Overexpression of GATA2 confers resistance to antiandrogen bicalutamide (Bic) (FIG. 2.9). Compound 673 is effective against the LNCaP stably transfected with GATA2-expressing plasmid (referred to as LNCaP-GATA2 cells) (FIG. 2.8).

[6] = molecular target: T5, human GATA2 (Homo sapiens, UniProt P23769); assay: GATA2-dependent reporter assay in IHH cells; assay type: cell-based; details: GATA-Luc reporter, 48 h
T5 construct: expressed in transfected cells; host or cells: IHH
T5 sequence (P23769 1-480): T4 sequence (P23769 1-480)
Method: K7174 is a known GATA2 inhibitor. The IHH cells were transiently transfected with empty vector (for the NT) or human GATA2-expressing plasmid as well as pRL-TK (internal control) and GATA-Luc reporter plasmids. Cells were exposed to DMSO vehicle or compounds for 48 h. Experiments were in triplicate.

[7] = molecular target: T6, ESE-1 (Homo sapiens, UniProt P78545); assay: ESE-1 dependent reporter assay in HEK293 cells; assay type: cell-based; details: 48 hours
T6 construct: expressed in transfected cells; host or cells: HEK293
T6 sequence (P78545 1-371): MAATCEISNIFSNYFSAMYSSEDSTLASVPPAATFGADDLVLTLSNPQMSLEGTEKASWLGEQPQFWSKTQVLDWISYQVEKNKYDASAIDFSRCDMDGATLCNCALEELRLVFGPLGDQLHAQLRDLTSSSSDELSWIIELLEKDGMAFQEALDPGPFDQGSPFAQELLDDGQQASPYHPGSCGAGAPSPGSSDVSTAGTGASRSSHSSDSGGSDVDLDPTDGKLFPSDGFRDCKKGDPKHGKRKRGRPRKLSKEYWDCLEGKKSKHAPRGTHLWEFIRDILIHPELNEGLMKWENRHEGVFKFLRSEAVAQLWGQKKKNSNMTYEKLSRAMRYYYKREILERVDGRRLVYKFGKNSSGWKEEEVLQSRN
Method: (§1) HEK293 cells were transiently transfected with empty vector (for the NT) or ERG-expressing plasmid as well as pRL-TK (internal control) and PUx3-Luc reporter. Cells were then exposed to DMSO vehicle or compounds at designated doses for 48 hours. Experiments were done in triplicate.
Experiments were done as described above in FIG. 1.1a) except that ERG plasmid was replaced by ESE-1 plasmid.

[8] = molecular target: T7, ETS-2 (Homo sapiens, UniProt P15036); assay: ETS-2 dependent reporter assay in HEK293 cells; assay type: cell-based; details: 48 hours
T7 construct: expressed in transfected cells; host or cells: HEK293
T7 sequence (P15036 whole entry, species assumed): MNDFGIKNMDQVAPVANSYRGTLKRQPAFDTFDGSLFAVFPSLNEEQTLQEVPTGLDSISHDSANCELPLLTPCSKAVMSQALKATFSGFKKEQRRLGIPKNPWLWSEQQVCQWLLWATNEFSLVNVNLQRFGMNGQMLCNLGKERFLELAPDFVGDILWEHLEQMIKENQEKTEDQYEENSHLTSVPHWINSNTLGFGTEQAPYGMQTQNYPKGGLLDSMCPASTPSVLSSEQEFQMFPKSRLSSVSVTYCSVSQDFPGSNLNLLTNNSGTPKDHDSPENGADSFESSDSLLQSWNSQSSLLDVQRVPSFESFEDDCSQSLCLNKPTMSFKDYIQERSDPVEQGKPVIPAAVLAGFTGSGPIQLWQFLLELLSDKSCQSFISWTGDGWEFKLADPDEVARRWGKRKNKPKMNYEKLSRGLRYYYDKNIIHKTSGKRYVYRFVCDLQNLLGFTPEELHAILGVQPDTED
Method: as §1
Experiments were done as described above in FIG. 1.1a) except that ERG plasmid was replaced by ETS-2 plasmid.

[9] = molecular target: T8, ERG (Homo sapiens, UniProt P11308); assay: ERG-dependent reporter assay in HEK293 cells; assay type: cell-based; design: expressed in transfected cells; host or cells: HEK293; details: PUx3-Luc reporter, 48 hours, designated doses
T8 sequence (P11308 1-486 isoform P11308-3): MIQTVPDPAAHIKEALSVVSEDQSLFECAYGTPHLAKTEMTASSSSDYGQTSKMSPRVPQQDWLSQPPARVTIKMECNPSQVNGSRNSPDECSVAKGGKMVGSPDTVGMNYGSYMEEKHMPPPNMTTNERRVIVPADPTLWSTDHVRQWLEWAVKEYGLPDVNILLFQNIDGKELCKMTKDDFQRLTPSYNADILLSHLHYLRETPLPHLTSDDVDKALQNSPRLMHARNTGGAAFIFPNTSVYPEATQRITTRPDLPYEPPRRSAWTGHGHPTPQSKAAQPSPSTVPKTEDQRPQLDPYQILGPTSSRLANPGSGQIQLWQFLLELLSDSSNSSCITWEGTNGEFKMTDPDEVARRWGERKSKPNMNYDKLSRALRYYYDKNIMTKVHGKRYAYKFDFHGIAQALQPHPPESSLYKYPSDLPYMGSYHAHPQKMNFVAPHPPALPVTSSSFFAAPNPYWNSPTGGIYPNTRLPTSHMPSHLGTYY
Method: as §1

[10] = test system: C4-2B cells; assay: Matrigel invasion assay, C4-2B; assay type: cell-based; details: 48 hours
Method: (§2) Invasion assay was performed using (8.0 μm pore size) BD Matrigel Invasion chambers in 24-well plate (Catalog: 354480, BD Biosc.). 750 μL medium (with 20% FBS) was added into lower chamber of each well (DMEM for VCaP, RPMI 1640 for C4-2B and DU145). Next, 5×10^5 VCaP or 5×10^5 C4-2B or 1×10^4DU145 cells in 500 μL medium (with 0.5% FBS) were seeded into the upper chamber of each well. DMSO vehicle or compounds in DMSO solution were added into upper chamber to reach the designated doses. After 48 hours incubation, the invasive cells attached to the lower surface of the membrane insert were fixed in 10% formalin at room temperature for 30 minutes and stained with 0.05% crystal violet. The number of invasive cells was then counted under a microscope. Invasion experiments were performed in duplicate. ***p<0.0001 when compared with vehicle control.

[11] = molecular target: T9, ETV1 (Homo sapiens, UniProt P50549); assay: ETV1-dependent reporter assay in HEK293 cells; assay type: cell-based; details: 48 hours
T9 construct: expressed in transfected cells; host or cells: HEK293
T9 sequence (P50549 1-477): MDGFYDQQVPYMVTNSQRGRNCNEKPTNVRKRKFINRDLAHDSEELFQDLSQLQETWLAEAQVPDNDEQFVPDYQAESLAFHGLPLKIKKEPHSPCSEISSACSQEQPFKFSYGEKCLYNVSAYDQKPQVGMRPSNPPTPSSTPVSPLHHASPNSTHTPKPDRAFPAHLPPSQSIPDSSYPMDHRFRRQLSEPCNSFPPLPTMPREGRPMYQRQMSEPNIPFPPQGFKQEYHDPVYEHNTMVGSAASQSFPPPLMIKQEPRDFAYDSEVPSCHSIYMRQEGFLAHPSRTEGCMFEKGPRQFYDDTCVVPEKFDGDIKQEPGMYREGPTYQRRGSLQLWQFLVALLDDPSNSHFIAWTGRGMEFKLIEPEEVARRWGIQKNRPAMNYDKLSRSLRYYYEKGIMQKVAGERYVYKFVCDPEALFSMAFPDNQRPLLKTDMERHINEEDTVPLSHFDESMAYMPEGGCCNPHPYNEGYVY
Method: as §1
Experiments were done as described above in FIG. 1.1a) except that ERG plasmid was replaced by ETV1 plasmid.

[12] = test system: VCaP cells; assay: Matrigel invasion assay, VCaP; assay type: cell-based; details: 48 hours
Method: as §2

[13] = molecular target: T8, ERG; assay: Surface Plasmon Resonance (SPR) analysis on amine-coupled ERG; assay type: binding
Method: Steady-state kinetics of compound 648, YK-4-279 (positive control) and bicalutamide (Bic) (negative control) over amine-coupled ERG surfaces with 50 μM injection (25 μL/min×120 sec association+120 sec dissociation). High-density ERG (6000 RU) and reference surface (no ERG) were amine-coupled to CM5 sensors using BIACORE 3000 instrumentation. YK-4-279 is a known ERG inhibitor. Bic is an antagonist of the androgen receptor.
FIG. 1.5b) Preliminary SPR data to characterize binding affinity of compound 648. Rapid on/off kinetics for compound 648 when titrated over amine-coupled ERG surfaces at 0, 10, 20, 30, 40, and 50 μM (25 μL/min×120 sec association+120 sec dissociation).

[14] = test system: EZH2, c-Myc and ERG expression in VCaP cells; assay: Expression of EZH2, c-Myc and ERG in VCaP cells; assay type: cell-based; details: 10 μM, 72 hours
Method: VCaP cells were exposed to DMSO vehicle control, 648, 698 and 891 at 10 μM for 72 hours in DMEM medium plus 10% FBS or phenol red-free DMEM medium plus 10% charcoal-stripped FBS (CS-FBS).

[15] = test system: LNCaP-pcDNA and LNCaP-GATA2 cells; assay: MTT assay in LNCaP-pcDNA and LNCaP-GATA2 cells; assay type: cell-based; details: 72 hours
Method: Cells were exposed to DMSO vehicle or compounds for 72 hours. Vial cells were evaluated by MTT assays. Experiments were done in triplicate.

T1 sequence (Q86WV6 whole entry H232R): as the sequence (Q86WV6 whole entry H232R) above

Compound: c1coc(-c2nc(CCCc3c[nH]c4ccccc34)[nH]c2-c2ccco2)c1 [Compound 817]
- activation of hSTING in ISRE-luc reporter assay [1]: activate hSTING
- activity against GATA3 in GATA3-dependent reporter assay ([2]; 10 μM): inactive against GATA3
- activity against GATA3 in GATA3-dependent reporter assay ([2]; compounds at 5 μM): inactive against GATA3
- activation of mSTING in ISRE-luc reporter assay [3]: activate mouse STING (mSTING)
- binding to amine-coupled human STING (SPR) [4]: Specific, dose-dependent binding; also recorded: Direct binding
- binding to amine-coupled GATA2 (SPR) [5]: Direct binding; also recorded: Specific binding
- GATA2 inhibition in GATA2-dependent reporter assay [6]: GATA2 inhibitors

Compound: N#CC(NC(=O)c1ccccc1)SCc1ccccc1 (stereo not drawn) [Compound V154]
- ESE-1 inhibition in ESE-1 dependent reporter assay [7]: ESE-1 inhibitors
- ETS-2 inhibition in ETS-2 dependent reporter assay [8]: ETS-2 inhibitor
- ERG inhibition in ERG-dependent reporter assay [9]: ERG inhibitors

Compound: Oc1cccc(-c2nc(Cc3c[nH]c4ccccc34)oc2-c2cccc(O)c2)c1 [Compound 648]
- inhibition of invasion of C4-2B cells [10]: potently inhibits invasion
- ETV1 inhibition in ETV1-dependent reporter assay [11]: ETV1 inhibitors
- inhibition of invasion of VCaP cells [12]: potently inhibits invasion
- direct binding with human ERG protein (SPR) ([13]; 50 μM injection, amine-coupled ERG): direct binding
- KD for ERG, steady-state affinity model (SPR) ([13]; titrated at 0-50 μM, preliminary data): low micromolar
- ERG inhibition in ERG-dependent reporter assay [9]: potent inhibitor of ERG; also recorded: ERG inhibitors
- inhibition of expression of EZH2, c-Myc and ERG [14]: inhibit expression of EZH2, c-Myc and ERG

Compound: CC(O)(CS(=O)(=O)c1ccc(F)cc1)C(=O)Nc1ccc(C#N)c(C(F)(F)F)c1 (stereo not drawn) [bicalutamide, reference compound]
- cytotoxicity in LNCaP-GATA2 compared with LNCaP-pcDNA cells (MTT) [15]: less active in LNCaP-GATA2 cells
